Assay results reported in US20220267308A1, “Modulators of Excitatory Amino Acid Transporters and Methods Using Same” (The Wistar Institute of Anatomy and Biology, priority 2019, published 2022).
Read-outs that look alike come from different tables or passages of the source.

How the values were obtained:
cortical neurons [1] = test: neuroprotection in neuronal cultures, bi-laminar approach, L-glutamate insult; assay type: cell-based; conditions: 10 μM L-glutamate for 24 h
Procedure: (§1) Top: Representative images (40× magnification) of 14 DIV cortical neurons in control conditions (FIG. 2A) or subjected to insult with 10 μM L-glutamate for 24 h (FIG. 2B). […] Bottom: Representative images of cortical neurons in control conditions (FIG. 2D) or subjected to insult with OGD for 20 min (FIG. 2E). […] Quantification performed 24 h after treatments in cultures stained for MAP-2 (green) and DAPI (blue). Surviving neurons were estimated by blind counting of 10 fields/coverslips, averages of triplicate determinations±SD (ANOVA followed by Dunnet's posthoc test, *p<0.05, **<0.01, p***<0.001, compared to control, #p<0.05, ###p<0.001, compared to insult).

cortical neurons [2] = test: neuroprotection in neuronal cultures, bi-laminar approach, OGD insult; assay type: cell-based; conditions: OGD for 20 min
Procedure: as §1

[3] = pilocarpine in vivo model of epilepsy; conditions: osmotic pump 48 hours, final dose 4 mg/Kg, after pilocarpine 380 mg/Kg; p=0.0189
EAAT2 [4] = target: T1, EAAT2 (Homo sapiens, UniProt P43004); test: kinetic analysis of L-glutamate uptake in EAAT2-transfected COS-7 cells; assay type: cell-based; design: expressed in transfected cells; host or cells: COS-7; conditions: compound 10 nM, different concentrations of glutamate
T1 sequence (P43004 whole entry, the tested form may be a part): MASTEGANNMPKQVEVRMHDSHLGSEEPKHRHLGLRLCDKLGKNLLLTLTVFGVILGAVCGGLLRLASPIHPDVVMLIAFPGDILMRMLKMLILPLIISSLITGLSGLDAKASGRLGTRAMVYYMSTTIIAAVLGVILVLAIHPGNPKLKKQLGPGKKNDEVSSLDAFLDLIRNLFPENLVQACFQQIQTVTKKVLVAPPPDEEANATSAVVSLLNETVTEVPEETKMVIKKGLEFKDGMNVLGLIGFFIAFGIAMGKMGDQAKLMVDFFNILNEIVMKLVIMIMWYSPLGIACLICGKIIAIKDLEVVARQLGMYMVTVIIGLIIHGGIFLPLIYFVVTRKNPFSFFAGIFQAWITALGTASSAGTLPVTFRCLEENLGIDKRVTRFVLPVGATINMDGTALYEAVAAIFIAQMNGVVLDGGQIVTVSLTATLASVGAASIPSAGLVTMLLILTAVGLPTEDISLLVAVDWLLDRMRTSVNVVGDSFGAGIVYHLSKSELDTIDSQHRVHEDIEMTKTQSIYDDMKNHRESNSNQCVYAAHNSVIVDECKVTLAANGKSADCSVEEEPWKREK

EAAT2 [5] = target: T1, EAAT2; test: glutamate uptake mediated by EAAT2-expressing COS-7 cells; conditions: for EAAT2 Efficacy: bottom number of the cell
EAAT1 = target: T2, EAAT1 (Homo sapiens, UniProt P43003); test: glutamate uptake mediated by EAAT1-expressing COS-7 cells; assay type: cell-based; conditions: for EAAT1 Efficacy: bottom number of the cell
T2 construct: expressed in transfected cells; host or cells: COS-7
T2 sequence (P43003 whole entry, the tested form may be a part): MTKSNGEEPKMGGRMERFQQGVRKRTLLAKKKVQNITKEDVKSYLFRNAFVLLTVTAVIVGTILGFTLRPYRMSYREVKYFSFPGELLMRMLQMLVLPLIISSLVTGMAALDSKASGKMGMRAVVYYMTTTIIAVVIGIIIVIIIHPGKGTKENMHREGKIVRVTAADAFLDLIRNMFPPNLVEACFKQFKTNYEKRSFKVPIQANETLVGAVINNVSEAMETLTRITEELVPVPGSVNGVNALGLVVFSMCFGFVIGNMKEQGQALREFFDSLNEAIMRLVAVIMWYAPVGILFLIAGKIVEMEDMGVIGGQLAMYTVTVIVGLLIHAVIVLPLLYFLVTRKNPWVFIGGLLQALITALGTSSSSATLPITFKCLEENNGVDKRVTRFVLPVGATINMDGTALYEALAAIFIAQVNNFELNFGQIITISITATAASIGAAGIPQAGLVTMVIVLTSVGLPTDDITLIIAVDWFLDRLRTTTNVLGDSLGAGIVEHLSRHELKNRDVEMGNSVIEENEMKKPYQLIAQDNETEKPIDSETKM

EAAT3 = target: T3, EAAT3 (Homo sapiens, UniProt P43005); test: glutamate uptake mediated by EAAT3-expressing COS-7 cells; assay type: cell-based; conditions: for EAAT3 EC50 (nM): top number of the cell
T3 construct: expressed in transfected cells; host or cells: COS-7
T3 sequence (P43005 1-524): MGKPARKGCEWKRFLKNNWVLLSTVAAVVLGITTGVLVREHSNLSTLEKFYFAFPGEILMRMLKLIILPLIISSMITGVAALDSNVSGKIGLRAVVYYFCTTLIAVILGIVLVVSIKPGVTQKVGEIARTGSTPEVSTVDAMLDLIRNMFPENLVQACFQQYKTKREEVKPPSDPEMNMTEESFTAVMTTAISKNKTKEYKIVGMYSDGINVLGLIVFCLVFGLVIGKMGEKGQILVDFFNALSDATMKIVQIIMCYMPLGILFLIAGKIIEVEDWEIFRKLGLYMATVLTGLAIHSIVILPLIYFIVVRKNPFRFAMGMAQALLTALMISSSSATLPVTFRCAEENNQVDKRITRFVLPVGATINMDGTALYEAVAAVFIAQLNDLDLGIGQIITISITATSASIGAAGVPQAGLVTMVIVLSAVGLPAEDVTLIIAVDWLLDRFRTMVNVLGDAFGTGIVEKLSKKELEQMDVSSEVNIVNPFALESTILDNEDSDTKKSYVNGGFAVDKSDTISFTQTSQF

[6] = SNL (spinal nerve ligation) model; conditions: p<0.01 compared to vehicle
neuron-glia cultures = test: neuroprotection in mixed neuron-glia cultures; assay type: cell-based, rat
Text: Immunostaining against neuronal marker MAP-2 (green), glial maker GFAP (red), and nuclear marker DAPI (blue). Surviving neurons were estimated by blind counting of 10 fields/coverslips, averages of triplicate determinations±SD (ANOVA followed by Dunnet's posthoc test, ***p<0.001, compared to control, ###p<0.001, compared to insult). FIGS. 7A-7E show the in vitro neuroprotective properties of second and third generation compounds after glutamate and oxygen glucose deprivation insults in mixed neuron/glia cultures. […] Immunostaining against neuronal marker MAP-2 (green), glial maker GFAP (red), and nuclear marker DAPI (blue). Images taken with 30× magnification with a confocal microscope.

glia cells = conditions: for Km / Vmax: Glia

Structure (SMILES): NC(CCCP(=O)(O)O)C(=O)O (racemic) [APV, (DL)-2-amino-5-phosphonovaleric acid, reference compound]
- cell death / surviving neurons (cortical neurons [1]; compound 100 μM): attenuate cell death
- cell death / surviving neurons (cortical neurons [2]; compound 100 μM): attenuated cell death

Structure (SMILES): CN1CCN(C(c2cccnc2)c2nnnn2CCc2ccccc2)CC1 (centres unmarked) [DA-023, 1-methyl-4-((1-phenethyl-1H-tetrazol-5-yl)(pyridin-3-yl)methyl)piperazine]
- cell death / surviving neurons (cortical neurons [1]; compound 10 nM): attenuate cell death
- cell death / surviving neurons (cortical neurons [2]; compound 100 nM): attenuated cell death
- neuronal death (FJC+ cell numbers) in the hilus [3]: significant reduction in the neuronal death
- effect on KM (affinity for the substrate) (EAAT2 [4]): no effect on KM
- effect on Vmax (in words) (EAAT2 [4]): increase in Vmax
- potency on transport augmentation (dose response curve) (EAAT2 [5]; EAAT2-expressing COS-7 cells): nM range
- efficacy on transport augmentation (EAAT2 [5]; EAAT2-expressing COS-7 cells, dose response curve): < 150%

Structure (SMILES): COc1ccc(C(c2nnnn2CCc2ccccc2)N2CCN(C3CCCCC3)CC2)cc1OC (centres unmarked) [DA-050, 1-cyclohexyl-4-((3,4-dimethoxyphenyl)(1-phenethyl-1H-tetrazol-5-yl)methyl)piperazine]
- EAAT1 Efficacy (EAAT1): 150.00 ± 21.21%
- EC50 (EAAT1; top number of the cell): 46 ± 36.8 nM
- EAAT3 EC50 (nM) (EAAT3): No Effect
- EC50 (EAAT2 [5]): 0.5 ± 0.56 nM
- EAAT2 Efficacy (EAAT2 [5]): 261.50 ± 40.30%

Structure (SMILES): CN1CCN(C(c2ccncc2)c2nnnn2CCc2ccccc2)CC1 (centres unmarked) [DA-058, 1-methyl-4-((1-phenethyl-1H-tetrazol-5-yl)(pyridin-4-yl)methyl)piperazine]
- EAAT1 Efficacy (EAAT1): 186.0 ± 41.01%
- EC50 (EAAT1; top number of the cell): 2.24 ± 1.07 nM
- EAAT3 EC50 (nM) (EAAT3): No Effect
- EC50 (EAAT2 [5]): 0.4 ± 0.42 nM
- EAAT2 Efficacy (EAAT2 [5]): 200.50 ± 58.60%

Structure (SMILES): COc1ccc2[nH]c(=O)c(C(c3nnnn3CCc3ccccc3)N3CCN(C4CCCCC4)CC3)cc2c1 (centres unmarked) [GT949]
- cell death / surviving neurons (cortical neurons [1]; compound 10 nM): attenuate cell death

Structure (SMILES): NCC1(CC(=O)O)CCCCC1 [Gabapentin, reference compound]
- analgesic response ([6]; 200 mg/kg): analgesic response

Structure (SMILES): CN1CCN(C(C(=O)NCCc2ccc(F)cc2)c2cccnc2)CC1 (centres unmarked) [NA-005, N-(4-fluorophenethyl)-2-(4-methylpiperazin-1-yl)-2-(pyridin-3-yl)acetamide]
- EAAT1 Efficacy (EAAT1): 189 ± 9.89%

Structure (SMILES): CN1CCN(C(C(=O)NCCc2ccc(F)cc2)c2ccc(C#N)cc2)CC1 (centres unmarked) [NA-014, 2-(4-cyanophenyl)-N-(4-fluorophenethyl)-2-(4-methylpiperazin-1-yl)acetamide]
- EAAT1 EC50 (nM) (EAAT1; top number of the cell): No Effect
- EAAT3 EC50 (nM) (EAAT3): No Effect
- neuronal survival (neuron-glia cultures; 100 μM L-glutamate for 24 h, co-treatment with 100 nM compound): neuroprotective effect
- neuronal survival with co-application of EAAT inhibitor TBOA (neuron-glia cultures; L-glutamate insult, compound plus TBOA): abolished by co-application of EAAT inhibitor TBOA
- analgesic response ([6]; 10 mg/kg): analgesic response
- Km (glia cells; NA-014 100 nM): 52.5 ± 5.82 µM
- Vmax (glia cells; NA-014 100 nM): 42.35 ± 1.44 pmol/well/min
- Km (glia cells; NA-014 500 nM): 49.8 ± 8.3 µM
- Vmax (glia cells; NA-014 500 nM): 72.76 ± 3.67 pmol/well/min
- KM versus vehicle (in words) (glia cells; cultured glia cells pre-incubated with 100 nM and 500 nM): not statistically different

Structure (SMILES): CN1CCN(C(c2ccc(F)nc2)c2nnnn2CCc2ccccc2)CC1 (centres unmarked) [VY-3-285, 1-((6-fluoropyridin-3-yl)(1-phenethyl-1H-tetrazol-5-yl)methyl)-4-methylpiperazine]
- EAAT1 Efficacy (EAAT1): 2.75 ± 3.18 222 ± 55.72%

Structure (SMILES): CN1CCN(C(c2ccc(O)nc2)c2nnnn2CCc2ccccc2)CC1 (centres unmarked) [VY-3-286, 5-((4-methylpiperazin-1-yl)(1-phenethyl-1H-tetrazol-5-yl)methyl)pyridin-2-ol]
- EAAT1 Efficacy (EAAT1): 160.25 ± 27.22%
- EAAT3 Efficacy (EAAT3; bottom number of the cell): 130.50 ± 2.12%
